ChEMBL document CHEMBL1149506, “Synthesis and in vitro biological evaluation of aryl boronic acids as potential inhibitors of factor XIa” (Bioorg Med Chem Lett, 2006)
pIC50: −log10 of the molar value. Where a name gives a salt, the structure may show the parent alone.

Key:
[1] = target: Coagulation factor XI (Homo sapiens, UniProt P03951); assay: Inhibition of f11a
[2] = target: Coagulation factor X (Homo sapiens, UniProt P00742); assay: Inhibition of f10a
[3] = species: Homo sapiens; assay: Selectivity for f11a over f10a
[4] = target: Trypsin (Homo sapiens, UniProt P07477+P07478+P35030); assay: Inhibition of trypsin; format: protein assay
[5] = target: Prothrombin (Homo sapiens, UniProt P00734); assay: Inhibition of thrombin
[6] = species: Homo sapiens; assay: Selectivity for f11a over trypsin

Coagulation factor X, sequence (P00742 41-179 limits assumed): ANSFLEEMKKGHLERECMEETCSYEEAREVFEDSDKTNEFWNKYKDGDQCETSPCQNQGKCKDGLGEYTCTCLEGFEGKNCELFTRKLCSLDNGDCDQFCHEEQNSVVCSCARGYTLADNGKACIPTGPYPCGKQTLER
Coagulation factor X, sequence (P00742 235-488 limits assumed): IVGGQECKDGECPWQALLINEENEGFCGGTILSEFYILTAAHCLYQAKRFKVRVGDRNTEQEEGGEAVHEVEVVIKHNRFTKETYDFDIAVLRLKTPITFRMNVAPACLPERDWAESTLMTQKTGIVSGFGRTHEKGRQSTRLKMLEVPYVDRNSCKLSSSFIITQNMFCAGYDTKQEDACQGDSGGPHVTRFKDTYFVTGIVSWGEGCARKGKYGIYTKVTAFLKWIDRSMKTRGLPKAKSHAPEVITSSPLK
Coagulation factor XI, sequence (P03951 19-387 limits assumed): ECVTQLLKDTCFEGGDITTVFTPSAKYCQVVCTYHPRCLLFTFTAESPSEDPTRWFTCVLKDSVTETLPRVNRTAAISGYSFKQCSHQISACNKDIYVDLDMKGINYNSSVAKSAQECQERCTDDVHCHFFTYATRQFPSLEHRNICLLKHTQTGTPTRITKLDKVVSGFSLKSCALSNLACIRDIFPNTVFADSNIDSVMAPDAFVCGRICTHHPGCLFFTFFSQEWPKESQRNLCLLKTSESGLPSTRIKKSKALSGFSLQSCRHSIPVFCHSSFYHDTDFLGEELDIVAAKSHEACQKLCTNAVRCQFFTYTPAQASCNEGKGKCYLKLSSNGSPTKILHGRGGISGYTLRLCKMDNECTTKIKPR
Coagulation factor XI, sequence (P03951 388-625 limits assumed): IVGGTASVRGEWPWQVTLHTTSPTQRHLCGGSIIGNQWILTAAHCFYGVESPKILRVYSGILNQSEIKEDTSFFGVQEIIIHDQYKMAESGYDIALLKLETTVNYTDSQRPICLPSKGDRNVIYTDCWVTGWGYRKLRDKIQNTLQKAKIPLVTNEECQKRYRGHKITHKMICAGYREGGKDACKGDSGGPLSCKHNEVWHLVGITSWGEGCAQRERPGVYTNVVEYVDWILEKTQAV

pIC50 [1] | pIC50 [2] | Selectivity ratio [3] | IC50 [4] [µM] | pIC50 [5] | Selectivity ratio [6] | Structure (SMILES)
4.11 |  |  |  |  |  | NCc1ccc(B(O)O)cc1
5.85 | 4.36 | 30 | > 200 | 4.91 | 200 | CC1(C)OB(c2ccc(C(NC(=N)N)OC(=O)c3cccnc3)cc2)OC1(C)C.O=C(O)C(F)(F)F (stereo not given)
4.61 | < 3.70 | 10 | > 200 | 3.89 | 10 | CC1(C)OB(c2ccc(CN=C(N)N)cc2)OC1(C)C
3.92 |  |  |  |  |  | N=C(N)c1ccccc1 [BENZAMIDINE HYDROCHLORIDE]
5.23 | 3.89 |  | 2.3 | 5.26 |  | CC1(C)OB(c2ccc(NC(=N)N)cc2)OC1(C)C.O=C(O)C(F)(F)F
5.14 | 3.76 | 25 | 20.3 | 4.51 | 3 | CC1(C)OB(c2ccc(CCN=C(N)N)cc2)OC1(C)C.O=C(O)C(F)(F)F
4.66 | < 3.70 | 10 | > 200 | 3.84 | 10 | N=C(N)NCc1ccc(B(O)O)cc1.O=C(O)C(F)(F)F
